Experimental data published in PMC6432638 (Science signaling, 2018).

Target: SMARCA4 (Homo sapiens, UniProt P51532)
Experiment: TR-FRET ligand displacement assay with recombinant bromodomain and BET ligand
Assay type: binding
Settings: read-out: % inhibition at 10 μM

Chain of SMARCA4 (P51532 1453-1564 limits assumed): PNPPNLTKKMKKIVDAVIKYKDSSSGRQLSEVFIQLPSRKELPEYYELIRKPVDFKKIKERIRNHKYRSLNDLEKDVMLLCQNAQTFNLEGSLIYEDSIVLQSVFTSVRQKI

inhibition at 10 µM: 95%
Compound: O=C(/C=C/N1C[C@H]2C[C@@H]1CN2c1ccccn1)c1ccccc1O [PFI-3]
